Experimental data reported in ChEMBL document CHEMBL1201861, “Genomics of Drug Sensitity in Cancer screening data, Wellcome Trust Sanger Institute”.

How the values were obtained:
MKN-28 = assay: cells; type: functional, cell-based; conditions: Homo sapiens;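 note: cell viability assay read-out, IC50 reflects suppression of growth of human MKN-28 cells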
Description: SANGER: Inhibition of human MKN28 cell growth in a cell viability assay.

MEL-HO = assay: cells; type: functional, cell-based; conditions: Homo sapiens
Description: SANGER: Inhibition of human MEL-HO cell growth in a cell viability assay.

MC-IXC = assay: cells; type: functional, cell-based; conditions: Homo sapiens;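 note: growth inhibition of MC-IXC cells, read out with a cell viability assay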
Description: SANGER: Inhibition of human MC-IXC cell growth in a cell viability assay.

KYSE-410 = assay: cells; type: functional, cell-based; conditions: Homo sapiens;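 note: growth inhibition of KYSE-410 cells, measured through a cell viability readout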
Description: SANGER: Inhibition of human KYSE-410 cell growth in a cell viability assay.

Panc1005 = assay: cells; type: functional, cell-based; conditions: Homo sapiens;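 note: growth inhibition of human PANC-10-05 cells, measured by a cell viability assay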
Description: SANGER: Inhibition of human PANC-10-05 cell growth in a cell viability assay.

PANC-03-27 = assay: cells; type: functional, cell-based; conditions: Homo sapiens
Description: SANGER: Inhibition of human PANC-03-27 cell growth in a cell viability assay.

KP-N-YN = assay: cells; type: functional, cell-based; conditions: Homo sapiens;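 note: growth inhibition of KP-N-YN cells, read out with a cell viability assay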
Description: SANGER: Inhibition of human KP-N-YN cell growth in a cell viability assay.

8305C = assay: cells; type: functional, cell-based; conditions: Homo sapiens
Description: SANGER: Inhibition of human 8305C cell growth in a cell viability assay.

COLO-741 = assay: cells; type: functional, cell-based; conditions: Homo sapiens
Description: SANGER: Inhibition of human COLO-741 cell growth in a cell viability assay.

UO-31 = assay: cells; type: functional, cell-based; conditions: Homo sapiens
Description: SANGER: Inhibition of human U031 cell growth in a cell viability assay.

VM-CUB-1 = assay: cells; type: functional, cell-based; conditions: Homo sapiens;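 note: cell viability assay measuring growth inhibition of the human VM-CUB-1 cell line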
Description: SANGER: Inhibition of human VM-CUB-1 cell growth in a cell viability assay.

MDA-MB-157 = assay: cells; type: functional, cell-based; conditions: Homo sapiens
Description: SANGER: Inhibition of human MDA-MB-157 cell growth in a cell viability assay.

SiHa = assay: cells; type: functional, cell-based; conditions: Homo sapiens;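 note: Viability-based readout of growth inhibition in SiHa cells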
Description: SANGER: Inhibition of human SiHa cell growth in a cell viability assay.

HCC1954 = assay: cells; type: functional, cell-based; conditions: Homo sapiens;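 note: growth inhibition of human HCC1954 cells, read out with a cell viability assay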
Description: SANGER: Inhibition of human HCC1954 cell growth in a cell viability assay.

EW-22 = assay: cells; type: functional, cell-based; conditions: Homo sapiens;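 note: growth inhibition of the EW-22 cell line, measured with a cell viability readout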
Description: SANGER: Inhibition of human EW-22 cell growth in a cell viability assay.

ABC-1 = assay: cells; type: functional, cell-based; conditions: Homo sapiens;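 note: growth inhibition of human ABC-1 cells, read out by a cell viability assay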
Description: SANGER: Inhibition of human ABC-1 cell growth in a cell viability assay.

639-V = assay: cells; type: functional, cell-based; conditions: Homo sapiens;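 note: growth inhibition of 639-V cells, read out with a cell viability assay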
Description: SANGER: Inhibition of human 639-V cell growth in a cell viability assay.

SBC-5 = assay: cells; type: functional, cell-based; conditions: Homo sapiens;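 note: cell viability assay read-out, IC50 is the concentration that inhibits growth of the cells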
Description: SANGER: Inhibition of human SBC-5 cell growth in a cell viability assay.

MKN-7 = assay: cells; type: functional, cell-based; conditions: Homo sapiens;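 note: growth inhibition of MKN-7 cells, read out with a cell viability assay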
Description: SANGER: Inhibition of human MKN7 cell growth in a cell viability assay.

NCI-H2405 = assay: cells; type: functional, cell-based; conditions: Homo sapiens;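 note: growth inhibition of the human cell line, read out with a cell viability assay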
Description: SANGER: Inhibition of human NCI-H2405 cell growth in a cell viability assay.

ME-180 = assay: cells; type: functional, cell-based; conditions: Homo sapiens;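 note: cell viability assay measuring growth inhibition of ME-180 cells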
Description: SANGER: Inhibition of human ME-180 cell growth in a cell viability assay.

HuP-T3 = assay: cells; type: functional, cell-based; conditions: Homo sapiens;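 note: HuP-T3 cell growth inhibition, read out with a cell viability assay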
Description: SANGER: Inhibition of human HuP-T3 cell growth in a cell viability assay.

T-24 = assay: cells; type: functional, cell-based; conditions: Homo sapiens;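 note: growth inhibition of T-24 cells, read out with a cell viability assay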
Description: SANGER: Inhibition of human T-24 cell growth in a cell viability assay.

SCC-4 = assay: cells; type: functional, cell-based; conditions: Homo sapiens;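 note: growth inhibition of human SCC-4 cells, read out as cell viability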
Description: SANGER: Inhibition of human SCC-4 cell growth in a cell viability assay.

Calu-3 = assay: cells; type: functional, cell-based; conditions: Homo sapiens;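 note: growth inhibition of human Calu-3 cells, determined with a cell viability assay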
Description: SANGER: Inhibition of human Calu-3 cell growth in a cell viability assay.

C32 = assay: cells; type: functional, cell-based; conditions: Homo sapiens;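 note: cell viability assay, with IC50 reflecting inhibition of C32 cell growth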
Description: SANGER: Inhibition of human C32 cell growth in a cell viability assay.

A204 = assay: cells; type: functional, cell-based; conditions: Homo sapiens;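 note: growth inhibition of human A204 cells, read out with a cell viability assay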
Description: SANGER: Inhibition of human A204 cell growth in a cell viability assay.

HuO-3N1 = assay: cells; type: functional, cell-based; conditions: Homo sapiens;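 note: cell viability readout used to measure how strongly compounds suppress proliferation of human HuO-3N1 cells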
Description: SANGER: Inhibition of human HuO-3N1 cell growth in a cell viability assay.

786-0 = assay: cells; type: functional, cell-based; conditions: Homo sapiens
Description: SANGER: Inhibition of human 786-0 cell growth in a cell viability assay.

HOP-92 = assay: cells; type: functional, cell-based; conditions: Homo sapiens;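 note: cell viability readout, with IC50 reflecting inhibition of HOP-92 cell growth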
Description: SANGER: Inhibition of human HOP-92 cell growth in a cell viability assay.

UACC-893 = assay: cells; type: functional, cell-based; conditions: Homo sapiens
Description: SANGER: Inhibition of human UACC-893 cell growth in a cell viability assay.

CP50-MEL-B = assay: cells; type: functional, cell-based; conditions: Homo sapiens;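 note: growth inhibition of the human cell line, measured with a cell viability read-out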
Description: SANGER: Inhibition of human CP50-MEL-B cell growth in a cell viability assay.

NCI-H810 = assay: cells; type: functional, cell-based; conditions: Homo sapiens;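 note: IC50 reflects inhibition of cancer cell line growth, read out with a cell viability assay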
Description: SANGER: Inhibition of human NCI-H810 cell growth in a cell viability assay.

MOLT-13 = assay: cells; type: functional, cell-based; conditions: Homo sapiens;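 note: IC50 for suppression of MOLT-13 cell growth, read out with a cell viability assay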
Description: SANGER: Inhibition of human MOLT-13 cell growth in a cell viability assay.

LN-405 = assay: cells; type: functional, cell-based; conditions: Homo sapiens
Description: SANGER: Inhibition of human LN-405 cell growth in a cell viability assay.

RO82-W-1 = assay: cells; type: functional, cell-based; conditions: Homo sapiens;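 note: growth inhibition of human RO82-W-1 cells, measured with a cell viability assay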
Description: SANGER: Inhibition of human RO82-W-1 cell growth in a cell viability assay.

A-431 = assay: cells; type: functional, cell-based; conditions: Homo sapiens;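 note: growth inhibition of A-431 cells, determined with a cell viability read-out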
Description: SANGER: Inhibition of human A431 cell growth in a cell viability assay.

Detroit 562 = assay: cells; type: functional, cell-based; conditions: Homo sapiens;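 note: growth inhibition of human Detroit 562 cells, read out by a cell viability assay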
Description: SANGER: Inhibition of human Detroit562 cell growth in a cell viability assay.

EFO-21 = assay: cells; type: functional, cell-based; conditions: Homo sapiens;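 note: growth inhibition of EFO-21 cells measured with a viability assay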
Description: SANGER: Inhibition of human EFO-21 cell growth in a cell viability assay.

BEN = assay: cells; type: functional, cell-based; conditions: Homo sapiens;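 note: growth inhibition of the BEN cell line, read out with a cell viability assay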
Description: SANGER: Inhibition of human BEN cell growth in a cell viability assay.

SW48 = assay: cells; type: functional, cell-based; conditions: Homo sapiens;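 note: growth inhibition of SW48 cells, read out with a cell viability assay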
Description: SANGER: Inhibition of human SW48 cell growth in a cell viability assay.

SN12C = assay: cells; type: functional, cell-based; conditions: Homo sapiens;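 note: growth inhibition of human SN12C cells, measured by a cell viability assay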
Description: SANGER: Inhibition of human SN12C cell growth in a cell viability assay.

MRK-nu-1 = assay: cells; type: functional, cell-based, Homo sapiens; conditions: Homo sapiens, MRK-nu-1;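 note: cell viability assay measuring growth suppression of human MRK-nu-1 cells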
Description: SANGER: Inhibition of human MRK-nu-1 cell growth in a cell viability assay.

DMS-153 = assay: cells; type: functional, cell-based, Homo sapiens; conditions: Homo sapiens, DMS-153
Description: SANGER: Inhibition of human DMS-153 cell growth in a cell viability assay.

TALL-1 = assay: cells; type: functional, cell-based, Homo sapiens; conditions: Homo sapiens, TALL-1;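 note: growth inhibition of cultured human TALL-1 cells, read out by a cell viability assay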
Description: SANGER: Inhibition of human TALL-1 cell growth in a cell viability assay.

KMS-12-PE = assay: cells; type: functional, cell-based, Homo sapiens; conditions: Homo sapiens, KMS-12-PE;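 note: growth inhibition of human KMS-12-PE cells, measured with a cell viability assay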
Description: SANGER: Inhibition of human KMS-12-PE cell growth in a cell viability assay.

YT = assay: cells; type: functional, cell-based, Homo sapiens; conditions: Homo sapiens, YT
Description: SANGER: Inhibition of human YT cell growth in a cell viability assay.

MHH-CALL-2 = assay: cells; type: functional, cell-based, Homo sapiens; conditions: Homo sapiens, MHH-CALL-2;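 note: growth inhibition of the cell line, read out in a cell viability assay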
Description: SANGER: Inhibition of human MHH-CALL-2 cell growth in a cell viability assay.

BC1 cell line = assay: SANGER: Inhibition of human BC-1 cell growth in a cell viability assay.; type: functional, cell-based; conditions: Homo sapiens, BC1
TE-441-T = assay: cells; type: functional, cell-based, Homo sapiens; conditions: Homo sapiens, TE-441-T
Description: SANGER: Inhibition of human TE-441-T cell growth in a cell viability assay.

BOKU = assay: cells; type: functional, cell-based; conditions: Homo sapiens;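 note: growth inhibition of the human BOKU cell line, read out by a cell viability assay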
Description: SANGER: Inhibition of human BOKU cell growth in a cell viability assay.

HuTu80 = assay: cells; type: functional, cell-based, Homo sapiens, HUTU-80; conditions: Homo sapiens, HuTu80;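 note: growth inhibition of HuTu80 human cells, determined with a cell viability readout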
Description: SANGER: Inhibition of human HUTU-80 cell growth in a cell viability assay.

P31-FUJ = assay: cells; type: functional, cell-based, Homo sapiens; conditions: Homo sapiens, P31-FUJ;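 note: growth inhibition of P31-FUJ cells, read out with a viability assay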
Description: SANGER: Inhibition of human P31-FUJ cell growth in a cell viability assay.

RPMI-6666 = assay: cells; type: functional, cell-based, Homo sapiens; conditions: Homo sapiens, RPMI-6666
Description: SANGER: Inhibition of human RPMI-6666 cell growth in a cell viability assay.

NCI-H748 = assay: cells; type: functional, cell-based, Homo sapiens; conditions: Homo sapiens, NCI-H748;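 note: growth inhibition of NCI-H748 cells, measured by a cell viability assay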
Description: SANGER: Inhibition of human NCI-H748 cell growth in a cell viability assay.

KARPAS-422 = assay: cells; type: functional, cell-based, Homo sapiens; conditions: Homo sapiens, KARPAS-422
Description: SANGER: Inhibition of human KARPAS-422 cell growth in a cell viability assay.

TYK-nu = assay: cells; type: functional, cell-based; conditions: Homo sapiens;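 note: growth inhibition of human TYK-nu cells, read out by a cell viability assay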
Description: SANGER: Inhibition of human TYK-nu cell growth in a cell viability assay.

O=C1NC(=O)c2c1c(-c1ccccc1Cl)cc1[nH]c3ccc(O)cc3c21
IC50 (MKN-28): > 2 µM | IC50 (MEL-HO): > 2 µM | IC50 (MC-IXC): > 2 µM | IC50 (KYSE-410): 1.56 µM | IC50 (Panc1005): > 2 µM | IC50 (PANC-03-27): 1.21 µM | IC50 (KP-N-YN): > 2 µM | IC50 (8305C): > 2 µM | IC50 (COLO-741): > 2 µM | IC50 (UO-31): > 2 µM | IC50 (VM-CUB-1): > 2 µM | IC50 (MDA-MB-157): > 2 µM | IC50 (SiHa): > 2 µM | IC50 (HCC1954): > 2 µM | IC50 (EW-22): > 2 µM | IC50 (ABC-1): > 2 µM | IC50 (639-V): > 2 µM | IC50 (SBC-5): > 2 µM | IC50 (MKN-7): > 2 µM | IC50 (NCI-H2405): > 2 µM | IC50 (ME-180): > 2 µM | IC50 (HuP-T3): > 2 µM | IC50 (T-24): > 2 µM | IC50 (SCC-4): > 2 µM | IC50 (Calu-3): > 2 µM | IC50 (C32): 1.53 µM | IC50 (A204): > 2 µM | IC50 (HuO-3N1): > 2 µM | IC50 (786-0): > 2 µM | IC50 (HOP-92): 1 µM | IC50 (UACC-893): > 2 µM | IC50 (CP50-MEL-B): > 2 µM | IC50 (NCI-H810): > 2 µM | IC50 (MOLT-13): > 2 µM | IC50 (LN-405): > 2 µM | IC50 (RO82-W-1): > 2 µM | IC50 (A-431): > 2 µM | IC50 (Detroit 562): > 2 µM | IC50 (EFO-21): > 2 µM | IC50 (BEN): > 2 µM | IC50 (SW48): > 2 µM | IC50 (SN12C): > 2 µM

Cc1cc(N2CCOCC2)cc2[nH]c(-c3c(NC[C@@H](O)c4cccc(Cl)c4)cc[nH]c3=O)nc12
IC50 (MRK-nu-1): > 5.12 µM | IC50 (DMS-153): > 5.12 µM | IC50 (TALL-1): > 5.12 µM | IC50 (KMS-12-PE): > 5.12 µM | IC50 (YT): > 5.12 µM | IC50 (MHH-CALL-2): > 5.12 µM | IC50 (BC1 cell line): > 5.12 µM | IC50 (TE-441-T): > 5.12 µM | IC50 (BOKU): 3.15 µM | IC50 (HuTu80): 0.466 µM | IC50 (P31-FUJ): > 5.12 µM | IC50 (RPMI-6666): 3.45 µM | IC50 (NCI-H748): > 5.12 µM | IC50 (KARPAS-422): > 5.12 µM | IC50 (MOLT-13): > 5.12 µM

Cc1ccc(NC(=O)c2ccc(CN3CCN(C)CC3)cc2)cc1Nc1nccc(-c2cccnc2)n1 [IMATINIB]
IC50 (MRK-nu-1): > 2 µM | IC50 (DMS-153): > 2 µM | IC50 (TALL-1): > 2 µM | IC50 (KMS-12-PE): > 2 µM | IC50 (EW-22): > 2 µM | IC50 (YT): > 2 µM | IC50 (MHH-CALL-2): > 2 µM | IC50 (BC1 cell line): > 2 µM | IC50 (TE-441-T): > 2 µM | IC50 (BOKU): > 2 µM | IC50 (HuTu80): > 2 µM | IC50 (P31-FUJ): > 2 µM | IC50 (RPMI-6666): > 2 µM | IC50 (NCI-H748): > 2 µM | IC50 (KARPAS-422): > 2 µM | IC50 (MOLT-13): > 2 µM

CC1(C)CCC(c2ccc(Cl)cc2)=C(CN2CCN(c3ccc(C(=O)NS(=O)(=O)c4ccc(N[C@H](CCN5CCOCC5)CSc5ccccc5)c(S(=O)(=O)C(F)(F)F)c4)cc3)CC2)C1 [NAVITOCLAX]
IC50 (MKN-28): > 2 µM | IC50 (MEL-HO): > 2 µM | IC50 (MC-IXC): > 2 µM | IC50 (TYK-nu): > 2 µM | IC50 (KYSE-410): > 2 µM | IC50 (Panc1005): > 2 µM | IC50 (PANC-03-27): > 2 µM | IC50 (KP-N-YN): 0.236 µM | IC50 (8305C): > 2 µM | IC50 (COLO-741): > 2 µM | IC50 (UO-31): > 2 µM | IC50 (VM-CUB-1): > 2 µM | IC50 (MDA-MB-157): > 2 µM | IC50 (SiHa): > 2 µM | IC50 (HCC1954): > 2 µM | IC50 (EW-22): 0.467 µM | IC50 (ABC-1): > 2 µM | IC50 (639-V): > 2 µM | IC50 (SBC-5): > 2 µM | IC50 (MKN-7): > 2 µM | IC50 (NCI-H2405): > 2 µM | IC50 (ME-180): > 2 µM | IC50 (HuP-T3): > 2 µM | IC50 (T-24): > 2 µM | IC50 (SCC-4): 1.6 µM | IC50 (Calu-3): 1.71 µM | IC50 (C32): 1.19 µM | IC50 (A204): > 2 µM | IC50 (HuO-3N1): > 2 µM | IC50 (786-0): > 2 µM | IC50 (HOP-92): > 2 µM | IC50 (UACC-893): > 2 µM | IC50 (CP50-MEL-B): > 2 µM | IC50 (NCI-H810): > 2 µM | IC50 (MOLT-13): 0.466 µM | IC50 (LN-405): > 2 µM | IC50 (RO82-W-1): > 2 µM | IC50 (A-431): > 2 µM | IC50 (Detroit 562): > 2 µM | IC50 (EFO-21): > 2 µM | IC50 (BEN): 0.24 µM | IC50 (SW48): > 2 µM | IC50 (SN12C): > 2 µM
